Test results: patent publication US20250129370A1, “METHOD FOR REDUCING HEPATIC TRIGLYCERIDES” (ADAERATA, LIMITED PARTNERSHIP, priority 2022, published 2025)
Blank lines part the entries; values can stand above or below the molecule they belong to.

Key:
apoB = apoB degradation pathway in WT and PCSK7-/- IHH cells with pathway inhibitors; assay type: cell-based, human
Experimental: FIGS. 7A-l: PCSK7 can bind apoB in the ER and acts as a molecular chaperone-like facilitating its secretion, and its absence leads to a rapid degradation of apoB by the proteasome. […] (FIG. 7A) Western blot (presented on gel and graphically) of apoB100 and PC7 protein levels in WT and PCSK7^−/− IHH cells. Levels are normalized to α-tubulin. (FIG. 7B) Western blot (presented on gel and graphically) of apoB100 and PC7 protein levels over time (0, 15 and 30 minutes) in WT and PCSK7^−/− IHH cells incubated with cycloheximide (CHX) to block de novo mRNA translation. Levels are normalized to α-tubulin. (FIG. 7C-D) Western blot (presented on gel and graphically) of cellular apoB levels in WT and PCSK7^−/− IHH cells incubated with brefeldin A (BFA) that blocks exit from the endoplasmic reticulum (ER), an autophagy inhibitor 3-methyladenine (3MA), proteasome inhibitors MG132, Lactacystin, DMSO or non treated (NT) controls. (FIG. 7E) Western blot (presented on gel) of cellular apoB levels and polyubiquitinated apoB100 in WT and PCSK7^−/− IHH cells incubated with Lactacystin. (FIG. 7F) Schematic representation of apoB100 and apoB21 protein. […]

PCSK7 mRNA [1] = test: PCSK7 mRNA qPCR after miRNA overexpression in HEK293T cells; assay type: cell-based, human
Experimental: (§1) RNA was isolated from the cells with the TRIzol™ Reagent (Invitrogen, USA) according to the manufacturer's instructions. The RNA samples were treated with RNase-free DNase I (Fermentas, USA) to eliminate any possible DNA contamination. Reverse transcription was performed using the PrimeScript™ First Strand cDNA Synthesis Kit (Takara, Japan) following the manufacturer's protocol. Briefly, one unit of the DNase I enzyme, 1 μL of a buffer, and 1 μg of total RNA were incubated for 30 minutes at 37° C. Then, 1 μL of 50 mM EDTA was added for enzyme inactivation and incubated at 65° C. for 10 minutes. Subsequently, 5 μL of DNase-treated RNA was added to the mix of 0.5 μL of the reverse-transcriptase enzyme, 2 μL of the reverse-transcriptase buffer, and 1 μL of a random hexamer and incubated for 15 minutes at 37° C., followed by 5 seconds at 85° C. for enzyme inactivation. Stem-loop RT-qPCR method was applied for evaluating the expression of miRNAs (Kramer, 2011). […]
(§2) All the reactions were repeated in duplicates. Next, melt curves were analyzed, with the mean threshold cycles used for further analyses. The relative expressions of the miRNAs and PCSK7 to RNU48 small nuclear RNA and/or GAPDH and β2m were calculated, respectively, via the 2-ΔΔCt method. […]

[2] = test system: 3′-UTR of human PCSK7 mRNAs; test: Dual-luciferase reporter assay, wild-type PCSK7 3′-UTR, HEK293T cells; assay type: cell-based; conditions: wild-type PCSK7 3′-UTR psiCHECK-2, HEK293T
Description: The interactions between the miRNAs and their probable targets on PCSK7 were explored by cloning the potential target regions in psiCHECK-2™ (Promega, USA), a luciferase reporter vector. In psiCHECK-2™, hRluc, the Renilla luciferase gene, is located upstream of the target regions of interest cloned into the psiCHECK-2™ vector downstream of the Renilla gene. The region corresponding to the 3′-UTR of PCSK7 (926-nt sequences in length) that constituted the predicted miRNA response elements was PCR-amplified and cloned downstream of the Renilla luciferase gene in the psiCHECK-2™ vector (Promega, USA). […]
The HEK293T cells were co-transfected through the application of the wild-type psiCHECK-2, the wild-type PCSK7 3′-UTR, the mutant PCSK7 3′-UTR, and the miR-overexpressing vectors so that the direct interactions of the nominated miRNAs with PCSK7 3′-UTR could be investigated. […] Transfection efficiency was monitored by fluorescent microscopy (Nikon TE2000S, Japan) 36 hours following the procedure.
The PsiCHECK-2 reporter construct plasmid contained the Renilla luciferase gene upstream of PCSK7 3′-UTR and an independent firefly luciferase gene as an internal control for normalization. […] Then, LARII Reagent was added, and after 20 minutes, the firefly luciferase activity was measured as a control. Afterward, Renilla activity was determined using Stop & Glo Reagent. […]

PCSK7 mRNA [3] = test: PCSK7 mRNA qPCR after miRNA overexpression in Huh7 cells; assay type: cell-based, human; conditions: Huh7, 48 hours following transfection, vs mock vector
Experimental: as §1, §2

[4] = target: T1, endogenous apoB100 of IHH cells (human, UniProt P04114 28-4563); test: co-immunoprecipitation from IHH cell lysates with a human ApoB antibody, Western blot for the V5 tag (FIG. 7I)
T1 construct: Endogenous protein in lysates of human IHH cells; also called apolipoprotein B
T1 sequence (P04114 28-4563 limits assumed): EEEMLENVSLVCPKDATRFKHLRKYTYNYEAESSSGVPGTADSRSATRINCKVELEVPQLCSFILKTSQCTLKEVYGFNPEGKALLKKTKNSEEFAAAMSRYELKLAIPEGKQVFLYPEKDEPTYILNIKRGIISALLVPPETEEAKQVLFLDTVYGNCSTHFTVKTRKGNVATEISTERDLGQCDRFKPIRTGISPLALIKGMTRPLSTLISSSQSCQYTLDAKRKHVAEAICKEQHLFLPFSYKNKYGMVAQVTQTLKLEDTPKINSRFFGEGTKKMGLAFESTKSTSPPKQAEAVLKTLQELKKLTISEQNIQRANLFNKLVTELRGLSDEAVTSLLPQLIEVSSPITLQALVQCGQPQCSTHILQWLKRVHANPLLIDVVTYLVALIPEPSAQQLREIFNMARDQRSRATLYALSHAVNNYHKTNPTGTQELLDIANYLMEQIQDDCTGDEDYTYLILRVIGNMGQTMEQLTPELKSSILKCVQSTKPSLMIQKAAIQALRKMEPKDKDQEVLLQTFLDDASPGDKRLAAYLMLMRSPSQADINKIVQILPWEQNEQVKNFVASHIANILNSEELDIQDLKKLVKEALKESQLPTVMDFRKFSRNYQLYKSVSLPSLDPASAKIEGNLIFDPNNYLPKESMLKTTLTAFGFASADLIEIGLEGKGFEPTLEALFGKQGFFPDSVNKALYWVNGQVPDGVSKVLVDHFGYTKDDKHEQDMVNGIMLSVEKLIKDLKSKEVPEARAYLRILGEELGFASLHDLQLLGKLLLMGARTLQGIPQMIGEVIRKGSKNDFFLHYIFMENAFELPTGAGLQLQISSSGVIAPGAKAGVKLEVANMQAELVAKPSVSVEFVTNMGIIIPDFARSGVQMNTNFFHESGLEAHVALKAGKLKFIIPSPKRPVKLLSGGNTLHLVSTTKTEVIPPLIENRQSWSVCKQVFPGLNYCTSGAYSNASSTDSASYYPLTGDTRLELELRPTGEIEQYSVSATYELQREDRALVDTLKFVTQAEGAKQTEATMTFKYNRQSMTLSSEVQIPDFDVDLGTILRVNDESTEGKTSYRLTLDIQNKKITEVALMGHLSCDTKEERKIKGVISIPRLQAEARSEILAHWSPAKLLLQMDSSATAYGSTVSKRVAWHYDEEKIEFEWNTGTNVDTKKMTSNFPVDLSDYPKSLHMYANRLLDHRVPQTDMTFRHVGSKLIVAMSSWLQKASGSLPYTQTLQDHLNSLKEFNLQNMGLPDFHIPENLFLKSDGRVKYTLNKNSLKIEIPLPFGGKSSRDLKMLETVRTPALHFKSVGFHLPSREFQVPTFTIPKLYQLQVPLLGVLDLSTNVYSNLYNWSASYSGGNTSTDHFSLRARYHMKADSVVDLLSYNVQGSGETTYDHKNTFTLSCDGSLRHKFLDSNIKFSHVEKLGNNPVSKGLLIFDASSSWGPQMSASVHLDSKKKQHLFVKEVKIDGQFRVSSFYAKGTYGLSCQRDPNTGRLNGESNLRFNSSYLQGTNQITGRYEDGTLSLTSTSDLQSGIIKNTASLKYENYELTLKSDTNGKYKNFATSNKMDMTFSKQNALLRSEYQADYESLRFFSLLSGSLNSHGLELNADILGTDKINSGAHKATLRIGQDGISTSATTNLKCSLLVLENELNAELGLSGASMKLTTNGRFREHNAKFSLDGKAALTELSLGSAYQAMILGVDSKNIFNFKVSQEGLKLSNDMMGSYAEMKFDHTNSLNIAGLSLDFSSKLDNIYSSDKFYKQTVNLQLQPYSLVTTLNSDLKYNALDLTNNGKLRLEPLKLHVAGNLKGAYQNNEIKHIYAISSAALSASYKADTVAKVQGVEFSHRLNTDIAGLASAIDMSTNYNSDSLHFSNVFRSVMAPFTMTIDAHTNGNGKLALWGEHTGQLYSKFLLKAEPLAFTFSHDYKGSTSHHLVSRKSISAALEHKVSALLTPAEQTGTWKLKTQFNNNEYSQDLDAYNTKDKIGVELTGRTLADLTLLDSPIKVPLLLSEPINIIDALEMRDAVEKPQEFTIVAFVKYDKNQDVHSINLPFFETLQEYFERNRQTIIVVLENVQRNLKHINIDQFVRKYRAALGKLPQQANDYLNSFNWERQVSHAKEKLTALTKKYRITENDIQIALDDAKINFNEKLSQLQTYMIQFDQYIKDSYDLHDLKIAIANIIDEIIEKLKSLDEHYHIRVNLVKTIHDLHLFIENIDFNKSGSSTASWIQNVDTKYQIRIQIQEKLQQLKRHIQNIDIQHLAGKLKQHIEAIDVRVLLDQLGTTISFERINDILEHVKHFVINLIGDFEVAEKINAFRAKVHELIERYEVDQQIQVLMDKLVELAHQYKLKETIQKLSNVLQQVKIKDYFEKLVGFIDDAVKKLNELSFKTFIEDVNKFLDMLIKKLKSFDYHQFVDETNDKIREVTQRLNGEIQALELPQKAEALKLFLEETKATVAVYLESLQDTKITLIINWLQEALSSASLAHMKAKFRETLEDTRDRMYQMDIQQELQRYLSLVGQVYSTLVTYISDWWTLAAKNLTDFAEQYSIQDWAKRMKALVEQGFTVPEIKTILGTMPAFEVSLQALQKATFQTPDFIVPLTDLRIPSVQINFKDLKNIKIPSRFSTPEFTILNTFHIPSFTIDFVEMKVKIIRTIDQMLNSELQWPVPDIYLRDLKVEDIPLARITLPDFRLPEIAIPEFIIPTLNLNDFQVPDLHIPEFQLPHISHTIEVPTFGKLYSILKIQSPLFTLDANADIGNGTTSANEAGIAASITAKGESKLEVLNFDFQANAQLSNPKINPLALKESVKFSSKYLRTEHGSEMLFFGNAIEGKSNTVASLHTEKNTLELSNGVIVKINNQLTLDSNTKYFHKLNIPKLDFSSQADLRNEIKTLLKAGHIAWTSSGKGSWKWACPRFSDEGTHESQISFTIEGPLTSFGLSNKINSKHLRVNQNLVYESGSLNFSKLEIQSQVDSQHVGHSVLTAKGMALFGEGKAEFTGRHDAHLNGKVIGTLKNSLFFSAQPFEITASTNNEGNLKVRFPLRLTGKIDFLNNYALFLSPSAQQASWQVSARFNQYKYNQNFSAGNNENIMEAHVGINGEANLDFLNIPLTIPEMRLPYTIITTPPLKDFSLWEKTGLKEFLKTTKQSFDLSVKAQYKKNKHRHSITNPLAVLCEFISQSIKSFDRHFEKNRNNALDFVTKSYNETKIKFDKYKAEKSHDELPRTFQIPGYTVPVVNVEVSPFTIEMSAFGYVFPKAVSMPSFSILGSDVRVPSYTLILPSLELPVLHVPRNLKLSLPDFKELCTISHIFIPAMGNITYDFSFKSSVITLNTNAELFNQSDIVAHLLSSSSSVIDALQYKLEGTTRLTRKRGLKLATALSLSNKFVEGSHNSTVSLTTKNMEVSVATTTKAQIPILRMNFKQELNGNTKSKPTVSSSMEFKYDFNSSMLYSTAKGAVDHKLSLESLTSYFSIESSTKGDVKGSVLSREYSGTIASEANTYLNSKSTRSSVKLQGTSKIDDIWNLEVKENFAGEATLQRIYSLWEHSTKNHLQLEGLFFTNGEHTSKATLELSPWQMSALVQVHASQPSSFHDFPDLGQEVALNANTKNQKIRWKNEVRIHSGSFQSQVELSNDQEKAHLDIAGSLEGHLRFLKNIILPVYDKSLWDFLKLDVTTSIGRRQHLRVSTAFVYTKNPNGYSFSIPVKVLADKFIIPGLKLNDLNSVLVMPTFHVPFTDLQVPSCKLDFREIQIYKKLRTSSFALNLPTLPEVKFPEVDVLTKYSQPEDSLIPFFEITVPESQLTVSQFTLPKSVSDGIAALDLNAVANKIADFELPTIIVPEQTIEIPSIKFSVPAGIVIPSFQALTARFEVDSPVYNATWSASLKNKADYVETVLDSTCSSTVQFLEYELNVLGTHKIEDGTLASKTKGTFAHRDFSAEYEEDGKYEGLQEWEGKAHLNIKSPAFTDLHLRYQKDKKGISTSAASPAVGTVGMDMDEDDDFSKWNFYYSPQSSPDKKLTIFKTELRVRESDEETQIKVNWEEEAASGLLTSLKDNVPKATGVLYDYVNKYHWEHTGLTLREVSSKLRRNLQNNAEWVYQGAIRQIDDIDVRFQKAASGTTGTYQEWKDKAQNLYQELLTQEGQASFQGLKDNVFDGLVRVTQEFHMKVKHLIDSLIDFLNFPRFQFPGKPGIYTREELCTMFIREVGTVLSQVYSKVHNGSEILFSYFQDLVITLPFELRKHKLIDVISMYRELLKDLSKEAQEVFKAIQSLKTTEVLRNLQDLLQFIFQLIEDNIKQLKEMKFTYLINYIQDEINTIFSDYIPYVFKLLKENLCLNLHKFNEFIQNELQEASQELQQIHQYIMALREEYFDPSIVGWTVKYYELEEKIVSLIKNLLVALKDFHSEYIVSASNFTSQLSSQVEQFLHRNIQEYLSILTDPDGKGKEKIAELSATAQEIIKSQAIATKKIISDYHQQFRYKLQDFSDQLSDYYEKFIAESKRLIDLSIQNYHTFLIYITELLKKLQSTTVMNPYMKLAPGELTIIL

Molecule: C[C@H]1CCC/C=C/[C@@H]2C[C@H](O)C[C@H]2[C@H](O)/C=C/C(=O)O1 [BFA, brefeldin A]
inhibition of apoB degradation (apoB): absence of BFA inhibition

Molecule: miR-320a-3p: predicted PCSK7-targeting miRNA with one predicted target site, overexpressed from precursor vector (AAAAGCUGGGUUGAGAGGGCGA; miRNA expressed from a precursor vector, further chemistry not given here)
effect on PCSK7 mRNA levels (PCSK7 mRNA [1]): no significant regulatory relationship | effect on luciferase activity [2]: no significant effect | effect on expression of PCSK7 mRNA (PCSK7 mRNA [3]): did not downregulate

binding result [4]: no binding
B1: SKI-1 tagged with V5 (enzyme, UniProt Q14703 187-1052, looked up)
chain: RAIPRQVAQTLQADVLWQMGYTGANVRVAVFDTGLSEKHPHFKNVKERTNWTNERTLDDGLGHGTFVAGVIASMRECQGFAPDAELHIFRVFTNNQVSYTSWFLDAFNYAILKKIDVLNLSIGGPDFMDHPFVDKVWELTANNVIMVSAIGNDGPLYGTLNNPADQMDVIGVGGIDFEDNIARFSSRGMTTWELPGGYGRMKPDIVTYGAGVRGSGVKGGCRALSGTSVASPVVAGAVTLLVSTVQKRELVNPASMKQALIASARRLPGVNMFEQGHGKLDLLRAYQILNSYKPQASLSPSYIDLTECPYMWPYCSQPIYYGGMPTVVNVTILNGMGVTGRIVDKPDWQPYLPQNGDNIEVAFSYSSVLWPWSGYLAISISVTKKAASWEGIAQGHVMITVASPAETESKNGAEQTSTVKLPIKVKIIPTPPRSKRVLWDQYHNLRYPPGYFPRDNLRMKNDPLDWNGDHIHTNFRDMYQHLRSMGYFVEVLGAPFTCFDASQYGTLLMVDSEEEYFPEEIAKLRRDVDNGLSLVIFSDWYNTSVMRKVKFYDENTRQWWMPDTGGANIPALNELLSVWNMGFSDGLYEGEFTLANHDMYYASGCSIAKFPEDGVVITQTFKDQGLEVLKQETAVVENVPILGLYQIPAEGGGRIVLYGDSNCLDDSHRQKDCFWLLDALLQYTSYGVTPPSLSHSGNRQRPPSGAGSVTPERMEGNHLHRYSKVLEAHLGDPKPRPLPACPRLSWAKPQPLNETAPSNLWKHQKLLSIDLDKVVLPNFRSNRPQVRPLSPGESGAWDIPGGIMPGRYNQEVGQTIPVFAFLGAMVVLAFFVVQINKAKSRPKRRKPRVKRPQLMQQVHPPKTPSV
notes: also called SKI-1-V5; not shown: V5 tag
